Measurements taken from patent US20080260644A1, “CHLORIDE TRANSPORT UPREGULATION FOR THE TREATMENT OF TRAUMATIC BRAIN INJURY” (priority 2005, published 2008).

Legend:
dentate granule cells = experiment: Gramicidin perforated patch recording of the membrane potential response to GABA in dentate granule cells in brain slices; assay type: cell-based, mouse
Procedure: Brain slices were prepared as previously reported (Witgen et al. (2005) Neuroscience, 133:1-15). Perforated patch recordings were conducted at room temperature from visually identified DG neurons using infrared differential interference contrast video microscopy (Stuart et al. (1993) Pflugers Arch., 423:511-8). Cells were voltage clamped at −60 mV, and signals were recorded and amplified with Axopatch 200 (Axon instruments, Foster city, CA), filtered at 2 kHz, digitized, and stored on a PC microcomputer for off line analysis. Electrodes were pulled to a resistance between 6 and 8 MΩ when filled with an internal solution composed of in (mM): 100 KCl, 10 Hepes, pH 7.4 (KOH), on a two stage puller (Sutter instruments, Novato, Calif.). Gramicidin (Sigma, St. Louis) was dissolved in dimethyllsulfuxide (DMSO, Sigma) (1-2 mg/ml) then diluted in the pipette filling solution (1:1000). Progress of membrane patch perforation was evaluated by following the decrease in access resistance (Ra) and recordings were begun once Ra had stabilized ([…]). Current-voltage (IV) relationships were generated using a voltage ramp (−110 to +40 ata rate of 107 mV/ms) in the absence and presence of agonist (GABA, 100 μM, applied 125 ms, 40-60 PSI using a Picospritzer II, General Valve Corporation, Fairfield, N.J.). For chloride fluorescence experiments, the internal solution was composed of (in mM) Kgluconate, 145; MgCl2, 2; BAPTA, 0.1; KCl, 2.5; NaCl, 2.5; HEPES, 10; GTP-Tris, 0.5; Mg-ATP, 2; pH 7.4 (KOH; Vhold=0 mV). For low K^+ experiments, KCl concentration was reduced from 3 to 1 mM while the concentration of NaCl was increased to maintain tonicity.
In order to investigate the functional consequences of reduced KCC2 expression in DG from injured animals, gramacidin perforated patch recordings were performed in dentate granule cells in brain slices derived from sham and FPI animals. Current-voltage (1-V) relationships were created using a voltage ramp that stepped the membrane voltage from a holding potential of −60 mV to −110 mV for 200 ms and then ramped the voltage from −110 to +40 mV at a rate of 107 mV/msec. I-V relationships were plotted by subtracting ramp currents recorded in control solution (aCSF) from currents recorded in the presence of ionophoresed agonist (GABA 100 μm) in brain slices from both sham (FIG. 2A) and FPI (FIG. 2B) animals. […] Mean EGABA values were −72±4.3 (n=7) in sham slices and −51±4.0 mV (n=16) in FPI slices. To ensure that the perforated patch configuration remained intact during the experiment, in several dentate granule cells (recorded in slices from both sham and injured animals) the patch was subsequently ruptured to enter into the whole cell configuration. […]

dentate gyrus = experiment: Dentate gyrus throughput index (TI), voltage sensitive dye fluorescence in hippocampal slices; assay type: cell-based, mouse
From the text: Slices were stimulated in the perforant pathway with one theta burst stimulation (TBS) (5 pulses of 50 μA at 100 Hz). Circles (kernels) represent average fluorescent signals in the DG and hilus respectively. FIG. 5B is a graph of the percent throughput of sham and injured (LFPI) mice.
Normal hippocampal function is directly determined by a balance between neuronal excitation and inhibition. Within the hippocampus there are three interconnected subregions referred to collectively as the ‘Trisynaptic Circuit.’ This circuit consists of the dentate gyrus (DG), area CA3, and area CA1, each having distinct physiological roles. The DG “filters” out aberrant or excessive input to the hippocampus and limits this activity from propagating further along the hippocampal circuit. […]
It is believed that the DG acts as a filter because it is extraordinarily resistant to the generation of synchronized bursting characteristic of epileptic seizures. […] Making use of fluorescent voltage sensitive dyes as a measure of hippocampal neuronal activity, a straightforward relationship has been devised in order to quantify the efficacy of dentate gyrus filtering capacity. “Throughput Index” (TI) is defined as the amount of fluorescence in the hilus divided by the fluorescence in the upper (suprapyramidal) blade of the dentate gyrus induced by afferent (perforant path) stimulation. […]

## NCCCC(=O)O [GABA, gamma-aminobutyric acid]
Dentate granule cells; DG neurons from naïve or sham animals, GABA 100 μM
  membrane potential response to iontophoresed GABA: −14±0.7 mV
Dentate granule cells; DG neurons in slices from injured (FPI) animals
  membrane potential response to iontophoresed GABA: depolarizing response

## CCCC(=O)O[C@@H]1[C@@H](C)[C@@]2(O)[C@@H](C=C(CO)C[C@]3(O)C(=O)C(C)=C[C@@H]23)[C@@H]2C(C)(C)[C@]12OC(=O)CCC [PDBu, phorbol 12,13-dibutyrate]
Dentate gyrus; slices from brain injured (FPI) animals
  effect on dentate gyrus throughput index (TI): significantly (p<0.05) reduces
Dentate gyrus; slices from sham animals
  effect on DG filtering (TI): does not affect

## CCCCNc1cc(C(=O)O)cc(S(N)(=O)=O)c1Oc1ccccc1 [bumetanide]
Dentate granule cells; slices from sham animals, bumetanide 10 μM
  GABA response in the presence of bumetanide compared to GABA alone: 39%
Dentate granule cells; slices from sham animals, bumetanide 10 μM bath applied, n=15
  response to focally applied GABA in the presence of bumetanide: −5±3.1 mV
